Tests used:
[1] = tested on: 4T1 mouse tumor cells; assay: Re-challenge of surviving treated mice with 4T1 cells (Example 4.4); format: in vivo
Protocol: To investigate the long-term immunity in miRNA-193a treated mice against 4T1 cells, on day 75 after inoculation, mice treated with miRNA-193a and 8 naïve (non-tumor bearing) mice were re-challenged by subcutaneous injection of 3×10^5 4T1 mouse tumor cells in PBS (0.1 mL/mouse) into the right front flank. TV and BW were monitored for 3 weeks. Then, to investigate the immunization status of miRNA-193a treated mice against other cell types, on day 101, mice treated with miRNA-193a and 8 naïve (non-tumor bearing) mice were re-challenged by subcutaneous injection of H22 (mouse liver tumor cells) cells in PBS (0.1 mL/mouse) into the right lower flank.

[2] = tested on: 4T1; assay: Cell viability (MTS assay or cell count); format: cell-based, mouse; conditions: 10 nM; TNBC 4T1; normalized to mock
Protocol: Depending on cancer cell type 3000-6000 cells were seeded in a 96 well plate. After cells attached, they were transfected with different concentrations of miRNA-193a and viability was measured at different time points. Viability measurement was performed using CellTiter 96 AQueous One Solution Cell Proliferation Assay (Promega). 20 μL of MTS reagent was added to 100 μL of media in each well in 96-well plate and incubated for 2 hours at 37° C. Absorbance was measured at 490 nm for each sample in 96 well plate reader.
Different biological effects of miRNA-193a-3p have been tested in various cancer cell lines (see Table 13). For this, various cells were treated with miRNA-193a at different concentrations (1, 3, 10 nM). For all experiments controls (untreated, mock and scrambled) were measured. […] Data shown in Table 13 are the results for miRNA-193a at 10 nM concentration at indicated time points. All the results have been quantified and normalized to the mock control.
miRNA-193a treatment in various cancer cell lines decreased cell viability over time as measured by either an MTS assay or by cell count. It enhanced apoptosis induction over time as measured by a caspase 3/7 apoptosis assay. […] It is of note that due to intrinsic characteristics and gene mutation status of each cell line, performing one method to detect apoptosis is not always ideal for all cell lines.

[3] = tested on: 4T1 tumor microenvironment; assay: FACS analysis of immune cells in orthotopic 4T1 tumors (Example 4.4); format: in vivo, mice
Protocol: Freshly isolated orthotopic 4T1 tumors were prepared for FACS analysis on day 5 (week 1) and day 12 (week 2) post miRNA-193a treatment when they reached a min tumor volume (TV) of 300 mm^3. Tumor samples were digested using murine tumor dissociation kit from Miltenyi (CAT #130-096-730). Following tumor cell digestion cells were re-suspended in 200 μl staining buffer with […] Fc-Block (Mouse BD Fc Block™ CAT #553141) and incubated at 4° C. for 15 minutes in the dark. Different markers (CD45, CD3, CD4, CD8, FoxP3, CD335, F4/80, CD11b, Gr-1, CD73, LAG3/CD223, IL-2, IFN-r, PD-1, L/D stain) have been used for FACS analysis. Antibody mixture for all markers except IL-2, IFN-r and LAG3 were diluted in Fc blocking buffer for each sample and stained for 30 min on ice, in the dark. Then, cells were gently washed by adding 2 ml of ice cold PBS to each tube. Each tube was centrifuged at 300 g for 5 minutes and supernatant was discarded. To detect intracellular markers (IL-2, IFN-r and LAG3) stimulation of the digested cells was performed. To do so, Leukocyte Activation Cocktail, with BD GolgiPlug™ was used. The cocktail was thawed at 37° C. in a water bath rapidly and for every 1 mL of cell culture (e.g., ˜10^6 cells/mL) 2 μL of cocktail was added and mixed thoroughly. To stimulate, cell culture mix was placed in a 37° C. humidified CO2 incubator for 4-6 hr. Then the cells were harvested and washed with FACS staining buffer. For staining, cell pellet was resuspended with pulse vortex and 200 ul of prepared Fixation/Permeabilization was added to each sample. Samples were incubated for 10 min at RT in the dark. Then, samples were washed twice by adding 1 ml of 1× Permeabilization Buffer (made from 10× Permeabilization Buffer, diluted with distilled H2O) followed by centrifugation and decanting of supernatant and each sample was incubated with the antibody cocktail containing FoxP3, IFN-r and IL-2 in 1× Permeabilization Buffer and incubated at RT for 30 minutes in the dark. Finally, cells were resuspended in […] of staining Buffer and analyzed on cytometer. The data was analysed by Kaluza flow cytometry software (from Beckman Coulter).
Six to eight weeks old female BALB/c mice (Shanghai Lingchang Bio-Technology Co. Ltd, Shanghai, China) were injected with 3×10^5 4T1 mouse tumor cells in PBS (0.1 mL/mouse) into the mammary fat pad. At the time of randomization, the TVs ranged between 69.9 and 173.9 mm3 (median 105.7, IQR=100.7-125.4). Body weights and TVs (caliper measurements) were determined 2-3 times/week. After randomization (day 9 after tumor inoculation) mice received different treatments under different dosing regimen (see Table 9 for dosing scheme). For all groups, 4 mice are sacrificed 48h after the 2nd miRNA-193a injection in the first week and in the 2nd week. Primary tumors were surgically removed from the mammary fat pad on day 20 after inoculation. After a recovery period of 3 days, treatment was resumed for 6 more weeks until day 63. Re-growth of (distant) tumors was monitored in addition to BW, and mice were sacrificed if end-points were met.

miRNA-193a: duplex of the miRNA-193a-3p of SEQ ID NO: 218 (mimic, sense) with antisense strand SEQ ID NO: 219; naked in vitro, formulated in vivo (sense UGGGACUUUGUAGGCCAGUUTT; antisense AACUGGCCUACAAAGUCCCAGU; chemistry not given here; listed as Homo sapiens)
Treated mice that showed tumor take when re-challenged with 4T1 cells ([1]; re-challenge day 75): 3 mice
Tumor take/growth after re-challenge with 4T1 cells ([1]; re-challenge day 75, 14 days post end of treatment, vs naïve mice): Pronounced prevention of tumor take/growth
Viability (96 h) [2]: ↓ (Viability > 50%)
Ratio of CD8+ T cells/Treg cells ([3]; 2 weeks post start of treatment, 10 mg/kg BIW iv, diamino lipid nanoparticles): > 1
Regulatory T cell population (FOXP3+/LAG3+) ([3]; after 1 week): significant decrease
T-cell function (production of IFNγ and IL-2) ([3]; after 1 week, CD45+ tumor cell population): significant increase
Regulatory T cell population (FOXP3+/LAG3+) ([3]; after 2 weeks): significant decrease
T-cell frequency (CD8+) ([3]; after 2 weeks): significant increase
T-cell function (IFNγ) ([3]; after 2 weeks): mild induction
CD73 (NT5E) expression level in immune cells ([3]; week 1 and week 2, 48h after administration): down-regulated

Reference: patent US20210038732A1, “ANTICANCER MICRORNA AND LIPID FORMULATIONS THEREOF” (INTERNA TECHNOLOGIES B.V., priority 2018, published 2021)
